Reference: PMC12863195 (2026)

What was measured:
[1] = system: R1 (MG RNA aptamer) (RNA, aptamer) GGAUCCCGACUGGCGAGAGCCAGGUAACGAAUGGAUCC; assay: fluorescence (ex 632 nm, em 650 nm); conditions: Mg2+ 20 mM (MgCl2); 1×RNAPol reaction buffer, 5 mM DTT, 2 µM MG, 35 °C, during transcription
[2] = system: Intact Mel aptamer (DNA, aptamer) GCACACCGATGGCGGTCCTGTTTAGGGGGTGTGC; assay: ITC; conditions: Mg2+ 40 mM (MgCl2); 20 mM Tris acetate pH 7.9, 25 °C; one set of sites fit
[3] = system: Split Mel aptamer – 0nt (DNA, aptamer) GCACACCGATGGCGGTCCTGT/TTAGGGGGTGTGC; assay: ITC; conditions: Mg2+ 40 mM (MgCl2); 20 mM Tris acetate pH 7.9, 25 °C; poorly defined fit (ΔH -335 ±751 kJ/mol)
[4] = system: Split Mel aptamer – 4nt (DNA, aptamer) GCACACCGATGGCGGTCCTGTAGGT/ACCTTTAGGGGGTGTGC; assay: ITC; conditions: Mg2+ 40 mM (MgCl2); 20 mM Tris acetate pH 7.9, 25 °C; one set of sites fit
[5] = system: Gm/Hm (DNA, aptamer) AGGGTGGTGGCGAAAGCACACCGATGGCGGTCCTGTAGGT/ACCTTTAGGGGGTGTGCAAACGCCTAGGTTGGGT; assay: thrombin coagulation inhibition, light scattering; conditions: 1 µM Gm/Hm, 5 nM thrombin, 10 mg/ml fibrinogen, 10-1000 µM Mel, 25 °C
[6] = system: Nm/Tm/Pm (DNA, aptamer) TAATACGACTCACTATAGGGATCCCGACTGGCGAGAGCCAGGTAACGAATGGATCC/GGATCCATTCGTTACCTGGCTCTCGCCAGTCGGGATCCCTATAGTGAGTCTTAGGGGGTGTGC/GCACACCGATGGCGGTCCTGTGTATTA; assay: transcription activation, MG aptamer fluorescence; conditions: Mg2+ 20 mM (MgCl2); 1×RNAPol reaction buffer, 0.2 µM strands, 0.125-2 mM Mel, 35 °C
[7] = system: Dm/Em (DNA, aptamer) CTGTTCAGCGATGCACACCGATGGCGGTCCTGTAGGT/ACCTTTAGGGGGTGTGCCACCCATGTTCCTGA; assay: DNAzyme cleavage of FAM/BHQ1 substrate, fluorescence; conditions: Mg2+ 40 mM (MgCl2); apparent; 20 mM Tris acetate pH 7.9, 1 µM each strand, 1 µM substrate S, BSA
[8] = system: Split Ade aptamer – 0nt (d1/t1+d2/t2) (DNA, aptamer) AGGGTGGTGGCGTGCGGAGGAAGGT/ACCTGGGGGAGTATCGCCTAGGTTGGGT; assay: ITC; conditions: Mg2+ 40 mM (MgCl2); 40 mM Tris acetate pH 7.9, 25 °C; one set of sites fit
[9] = system: Split Ade aptamer – 3nt (Ga/Ha; d1/c/t1+d2/c'/t2) (DNA, aptamer) AGGGTGGTGGCGAACTGCGGAGGAAGGT/ACCTGGGGGAGTATGATCGCCTAGGTTGGGT; assay: ITC; conditions: Mg2+ 40 mM (MgCl2); 40 mM Tris acetate pH 7.9, 25 °C; one set of sites fit
[10] = system: Na/Ta/Pa (DNA, aptamer) ACCTGGGGGAGTATTAATACGACTCACTATAGGGTTCTCCTCTGCGTTGTTGTTTG/CAAACAACAACGCAGAGGAGAACCCTATAGTGAGTCG/TATTATGCGGAGGAAGGT; assay: transcription activation, F/Q strand displacement fluorescence; conditions: Mg2+ 20 mM (MgCl2); 1×RNAPol reaction buffer, 0.2 µM strands, 0.125-2 mM Ade, 33 °C
[11] = system: Split Ade aptamer – 3nt (Ga/Ha; d1/c/t1+d2/c'/t2) (DNA, aptamer) AGGGTGGTGGCGAACTGCGGAGGAAGGT/ACCTGGGGGAGTATGATCGCCTAGGTTGGGT; assay: stated; ADA-driven loss of thrombin inhibition; conditions: adenosine 1.25-1.8 mM converted by ADA

CN(C)c1ccc(C(=C2C=CC(=[N+](C)C)C=C2)c2ccccc2)cc1
binding [1]: yes

Nc1nc(N)nc(N)n1
Kd [2]: 0.800 ± 0.139 µM
Kd [3]: 11.1 ± 2.09 µM
Kd [4]: 0.890 ± 0.123 µM
binding [5]: yes
binding [6]: yes
K0.5 [7]: 162 ± 4.8 µM

Nc1ncnc2c1ncn2[C@@H]1O[C@H](CO)[C@@H](O)[C@H]1O
Kd [8]: 14.1 ± 1.3 µM
Kd [9]: 7.28 ± 0.82 µM
binding [10]: yes

O=c1[nH]cnc2c1ncn2[C@@H]1O[C@H](CO)[C@@H](O)[C@H]1O
binding [11]: no
